Experimental findings from EP3898610B1, “NOVEL AZA-HEXAPHENE ANTIBIOTIC COMPOUNDS” (Fondazione Istituto Insubrico di Ricerca per la Vita, priority 2018, dated 2020) are described below.

Converted amounts (≈) assume the structure as drawn. Where two headings read alike, the source gives them in different places.

Series [1] relates to L145 C. albicans. Kind of series: MIC, broth microdilution (CLSI). It counts as cell-based. Conditions: Candida albicans; L145 C. albicans; RPMI 1640 medium, 10^4 CFU/ml, 35°C, 18-24 hours; read-out: MIC. The method, then: Antibacterial activity. The antimicrobial activity of the antibiotic 103/33-F710 was determined by the broth microdilution method according to the procedures published by the Clinical and Laboratory Standards Institute (CLSI), formerly the National Committee for Clinical Laboratory Standards (NCCLS) (document M07-A9). Microorganisms were grown in either cation-adjusted Mueller Hinton Broth (Staphylococci, Enterococci, Moraxella catarrhalis, Escherichia coli), Todd Hewitt medium (Streptococci) or RPMI 1640 medium for Candida albicans on 96-well microtiter plates. Each bacterial strain was inoculated with 2-5×10^5 CFU/ml, Candida albicans with 10^4 CFU/ml. Cultures were incubated at 35°C in air. After 18-24 hours visual readings were performed and MICs (Minimal Inhibitory Concentrations) determined. The effect of 30% bovine serum was determined under the same experimental conditions. The strains used were clinical isolates or strains from American Type Culture Collection (ATCC). The antibiotic 103/33-F710 was dissolved in DMSO to obtain a 1000 µg/ml stock solution, and subsequently diluted in water to obtain working solution. Table 5: Antimicrobial activity reported as MIC (µg/ml) of ID103/33-F710
Antibacterial activity. The antimicrobial activity of the antibiotic 103/33-F696 was determined by the broth microdilution method according to the procedures disclosed in Example 7. Table 6: Antimicrobial activity reported as MIC (µg/ml) of compound 2 (103/33-F696)
Antibacterial activity. The antimicrobial activity of the antibiotic 103/33-F712 was determined by the broth microdilution method according to the procedures disclosed in Example 7. Table 7: Antimicrobial activity reported as MIC (µg/ml) of ID103/33-F712

Series [2] deals with HepG2 cells from hepatocarcinoma. Kind of series: Cytotoxicity against human cells. It is filed as cell-based. Conditions: at 200 µg/ml, the highest concentration tested.
In series [3] the test system is BJ5TA - ATCC CRL-4401 normal fibroblast. Kind of series: Cytotoxicity against human cells. It counts as cell-based. Conditions: at 200 µg/ml, the highest concentration tested.
Series [4] has as its system human erythrocytes. Kind of series: Hemolytic activity. It counts as cell-based.
Series [5] deals with Staphylococcus aureus Smith 819 ATCC 19636. Briefly: Murine septicemia model. It counts as in vivo. To be noted: ATCC19636, intravenous administrations. The source says:
Effectiveness. […] This level of protection was observed after intravenous administrations.

The nature of series [6]: Solubility. It counts as physicochemical. The method, then: (§1) Solubility of compound 1 (103/33 F-710) was poor in most low to medium- polarity organic solvents, as well as in water from acidic to neutral pH; it was more soluble at basic pH and stable up to pH 8-9, while in alcohols it ranged between 5-10 mg/ml. […] Some crystallizations trials were performed on compound 1 (103/33 F-710) in order to obtain suitable crystals for the X-ray structural characterization.

A short description of series [7]: Stability as a function of pH. It is filed as physicochemical. To be noted: basic pH. The method, then:
as §1

`COc1c(OC)c2c(=O)c3cc(C)n(C(CC4CN(C)C(=N)N4)C(=O)O)c(=O)c3c(=O)c2c2cc3c(=O)c4cc(O)cc(O)c4c(=O)c3c(OC)c12` (centres unmarked) [compound 1, 2-(10,12-Dihydroxy-6,7,8-trimethoxy-3-methyl-1,5,9,14,16-pentaoxo-5,9,14,16-tetrahydro-1H-2-aza-hexaphen-2-yl)-3-(2-imino-1-methyl-imidazolidin-4-yl)-propionic acid]: the MIC in series [1] was 256 µg/mL (≈ 0.36 mM). For the same compound, the “toxicity against human cells” value in series [2] and in series [3] was “no toxicity” each time. Also, in series [4], the hemolytic activity result is “no hemolytic activity”. In series [5], this compound came in with an ED50 of 15 mg/kg. For the same compound, the Solubility result in series [6] (acetone) was “scarcely soluble”; in series [6] (at basic pH), “more soluble”; in series [6] (dimethylformamide (DMF)), “soluble”; in series [6] (methanol (MeOH)), “scarcely soluble”; in series [6] (most low to medium- polarity organic solvents), “poor”; in series [6] (organic solvent or mixture, dimethylsulfoxide (DMSO), read-out: Solubility) it was greater than 50000 µg/mL. The Solubility in series [6] (organic solvent or mixture, in alcohols, read-out: Solubility) was 5000 to 10000 µg/mL (≈ 7.04 to 14.1 mM); in series [6] (water from acidic to neutral pH), “poor”. Further, the “stable up to pH” value in series [7] is on record as 8-9.
